Laboratory results: the supplement of paper PMC10307832

Key:
Experiment in all cases: relative viability (nuclei count vs DMSO), 5 days (fraction); higher = more cells survive
[1] = system: NCI-H23
How it was run: (§1)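 The day after seeding in 1536-well plates, lung cancer cell lines were treated by pin tool with a single drug, or with a fixed anchor-drug dose together with five library-drug doses (not always all listed) in √10 steps. After 5 days, a combined fix-and-stain solution (final 0.05% Triton X-100, 1% formaldehyde, 1 ug/ml Hoechst) was added. Nuclei counted on 4× images gave relative viability as treated counts over vehicle counts, reported as the median of duplicate plates.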

[2] = system: NCI-H1993
How it was run: as §1

[3] = system: LK-2
How it was run: as §1

[4] = system: NCI-H1666
How it was run: as §1

[5] = system: PC-14
How it was run: as §1

[6] = system: NCI-H2405
How it was run: as §1

[7] = system: NCI-H2170
How it was run: as §1

[8] = system: NCI-H3122
How it was run: as §1

[9] = system: NCI-H1755
How it was run: as §1

[10] = system: LU99A
How it was run: as §1

[11] = system: NCI-H661
How it was run: as §1

[12] = system: NCI-H1437
How it was run: as §1

[13] = system: NCI-H1793
How it was run: as §1

[14] = system: HARA
How it was run: as §1

[15] = system: NCI-H2085
How it was run: as §1

[16] = system: RERF-LC-KJ
How it was run: as §1

[17] = system: LXF-289
How it was run: as §1

[18] = system: LCLC-103H
How it was run: as §1

[19] = system: LOU-NH91
How it was run: as §1

[20] = system: BEN
How it was run: as §1

[21] = system: NCI-H2342
How it was run: as §1

[22] = system: A-427
How it was run: as §1

With `Oc1nc(-c2ccc(C(F)(F)F)cc2)nc2c1CSCC2` [XAV939] + CC(=O)Nc1cccc(-n2c(=O)n(C3CC3)c(=O)c3c(Nc4ccc(I)cc4F)n(C)c(=O)c(C)c32)c1 [Trametinib] (partner 0.02 µM) as the molecule, how does the relative viability ([1]; first compound 0.08 µM) read?
The relative viability was 0.383.

What about the relative viability ([1]; first compound 0.8 µM) of the same molecule?
The relative viability was 0.403.

What about the relative viability ([1]; first compound 2.53 µM) of the same molecule?
Its relative viability is 0.349.

What about the relative viability ([2]; first compound 0.08 µM) of the same molecule?
Its relative viability is 0.541.

What about the relative viability ([2]; first compound 0.253 µM) of the same molecule?
Its relative viability is 0.488.

And the relative viability ([2]; first compound 0.8 µM)?
The relative viability was 0.411.

And the relative viability ([2]; first compound 2.53 µM)?
The relative viability was 0.449.

What about the relative viability ([3]; first compound 0.08 µM) of the same molecule?
The relative viability was 0.788.

What about the relative viability ([3]; first compound 0.253 µM) of the same molecule?
Its relative viability is 0.792.

And the relative viability ([3]; first compound 0.8 µM)?
The relative viability was 0.703.

And the relative viability ([3]; first compound 2.53 µM)?
Its relative viability is 0.535.

And the relative viability ([4]; first compound 0.08 µM)?
The relative viability was 1.

And the relative viability ([4]; first compound 0.253 µM)?
Its relative viability is 0.834.

And the relative viability ([4]; first compound 0.8 µM)?
The relative viability was 0.754.

What about the relative viability ([4]; first compound 2.53 µM) of the same molecule?
Its relative viability is 0.871.

What about the relative viability ([5]; first compound 0.08 µM) of the same molecule?
Its relative viability is 0.833.

And the relative viability ([5]; first compound 0.253 µM)?
Its relative viability is 0.707.

And the relative viability ([5]; first compound 0.8 µM)?
The relative viability was 0.671.

And the relative viability ([5]; first compound 2.53 µM)?
The relative viability was 0.597.

And the relative viability ([6]; first compound 0.08 µM)?
Its relative viability is 0.685.

And the relative viability ([6]; first compound 0.253 µM)?
The relative viability was 0.591.

And the relative viability ([6]; first compound 0.8 µM)?
The relative viability was 0.607.

What about the relative viability ([6]; first compound 2.53 µM) of the same molecule?
Its relative viability is 0.412.

And the relative viability ([7]; first compound 0.08 µM)?
The relative viability was 0.882.

And the relative viability ([7]; first compound 0.253 µM)?
Its relative viability is 0.833.

What about the relative viability ([7]; first compound 0.8 µM) of the same molecule?
Its relative viability is 0.822.

And the relative viability ([7]; first compound 2.53 µM)?
The relative viability was 0.72.

And the relative viability ([8]; first compound 0.08 µM)?
Its relative viability is 0.257.

What about the relative viability ([8]; first compound 0.253 µM) of the same molecule?
The relative viability was 0.211.

And the relative viability ([8]; first compound 0.8 µM)?
Its relative viability is 0.237.

And the relative viability ([8]; first compound 2.53 µM)?
The relative viability was 0.196.

What about the relative viability ([9]; first compound 0.08 µM) of the same molecule?
Its relative viability is 0.719.

And the relative viability ([9]; first compound 0.253 µM)?
Its relative viability is 0.64.

And the relative viability ([9]; first compound 0.8 µM)?
The relative viability was 0.661.

What about the relative viability ([9]; first compound 2.53 µM) of the same molecule?
The relative viability was 0.692.

What about the relative viability ([10]; first compound 0.08 µM) of the same molecule?
Its relative viability is 0.678.

And the relative viability ([10]; first compound 0.253 µM)?
Its relative viability is 0.521.

What about the relative viability ([10]; first compound 0.8 µM) of the same molecule?
The relative viability was 0.524.

And the relative viability ([10]; first compound 2.53 µM)?
The relative viability was 0.542.

What about the relative viability ([11]; first compound 0.08 µM) of the same molecule?
Its relative viability is 0.617.

And the relative viability ([11]; first compound 0.253 µM)?
Its relative viability is 0.538.

And the relative viability ([11]; first compound 0.8 µM)?
The relative viability was 0.543.

And the relative viability ([11]; first compound 2.53 µM)?
Its relative viability is 0.568.

And the relative viability ([12]; first compound 0.08 µM)?
The relative viability was 0.499.

What about the relative viability ([12]; first compound 0.253 µM) of the same molecule?
The relative viability was 0.407.

And the relative viability ([12]; first compound 0.8 µM)?
The relative viability was 0.518.

What about the relative viability ([12]; first compound 2.53 µM) of the same molecule?
The relative viability was 0.29.

And the relative viability ([13]; first compound 0.08 µM)?
The relative viability was 0.576.

What about the relative viability ([13]; first compound 0.253 µM) of the same molecule?
Its relative viability is 0.381.

And the relative viability ([13]; first compound 0.8 µM)?
Its relative viability is 0.381.

And the relative viability ([13]; first compound 2.53 µM)?
Its relative viability is 0.353.

And the relative viability ([14]; first compound 0.08 µM)?
Its relative viability is 0.925.

And the relative viability ([14]; first compound 0.253 µM)?
The relative viability was 0.531.

What about the relative viability ([14]; first compound 0.8 µM) of the same molecule?
The relative viability was 0.892.

And the relative viability ([14]; first compound 2.53 µM)?
Its relative viability is 0.506.

What about the relative viability ([15]; first compound 0.08 µM) of the same molecule?
The relative viability was 0.587.

What about the relative viability ([15]; first compound 0.253 µM) of the same molecule?
The relative viability was 0.436.

And the relative viability ([15]; first compound 0.8 µM)?
The relative viability was 0.432.

What about the relative viability ([15]; first compound 2.53 µM) of the same molecule?
The relative viability was 0.314.

What about the relative viability ([16]; first compound 0.08 µM) of the same molecule?
Its relative viability is 0.859.

What about the relative viability ([16]; first compound 0.253 µM) of the same molecule?
The relative viability was 0.733.

What about the relative viability ([16]; first compound 0.8 µM) of the same molecule?
Its relative viability is 0.768.

What about the relative viability ([16]; first compound 2.53 µM) of the same molecule?
The relative viability was 0.603.

And the relative viability ([17]; first compound 0.08 µM)?
The relative viability was 0.665.

And the relative viability ([17]; first compound 0.253 µM)?
The relative viability was 0.632.

And the relative viability ([17]; first compound 0.8 µM)?
The relative viability was 0.687.

What about the relative viability ([17]; first compound 2.53 µM) of the same molecule?
Its relative viability is 0.729.

What about the relative viability ([18]; first compound 0.08 µM) of the same molecule?
The relative viability was 0.704.

And the relative viability ([18]; first compound 0.253 µM)?
The relative viability was 0.641.

And the relative viability ([18]; first compound 0.8 µM)?
Its relative viability is 0.672.

And the relative viability ([18]; first compound 2.53 µM)?
The relative viability was 0.676.

What about the relative viability ([19]; first compound 0.08 µM) of the same molecule?
Its relative viability is 0.811.

What about the relative viability ([19]; first compound 0.253 µM) of the same molecule?
Its relative viability is 0.769.

What about the relative viability ([19]; first compound 0.8 µM) of the same molecule?
The relative viability was 0.745.

What about the relative viability ([19]; first compound 2.53 µM) of the same molecule?
Its relative viability is 0.742.

And the relative viability ([20]; first compound 0.08 µM)?
The relative viability was 1.07.

What about the relative viability ([20]; first compound 0.253 µM) of the same molecule?
The relative viability was 1.01.

And the relative viability ([20]; first compound 0.8 µM)?
The relative viability was 1.19.

What about the relative viability ([20]; first compound 2.53 µM) of the same molecule?
The relative viability was 0.88.

And the relative viability ([21]; first compound 0.08 µM)?
The relative viability was 0.834.

What about the relative viability ([21]; first compound 0.253 µM) of the same molecule?
The relative viability was 0.781.

What about the relative viability ([21]; first compound 0.8 µM) of the same molecule?
The relative viability was 0.717.

What about the relative viability ([21]; first compound 2.53 µM) of the same molecule?
The relative viability was 0.446.

What about the relative viability ([22]; first compound 0.08 µM) of the same molecule?
The relative viability was 0.818.

What about the relative viability ([22]; first compound 0.253 µM) of the same molecule?
The relative viability was 0.737.

What about the relative viability ([22]; first compound 0.8 µM) of the same molecule?
Its relative viability is 0.781.

What about the relative viability ([22]; first compound 2.53 µM) of the same molecule?
The relative viability was 0.658.
